Source: PMC11719606, “Exploring the Inhibition of Toxoplasma gondii α-Carbonic Anhydrase by Sulfonamides: Insights into Potential Drug Targeting” (International Journal of Molecular Sciences, 2024)

These molecules were tested against T1, Tg_CA (Toxoplasma gondii, UniProt S8F479) (assay: stopped-flow CO2 hydration, phenol red, Cheng-Prusoff).
T1 construct: gene TGME49_259950; alpha-CA domain, residues 487-830 of an 861-residue protein; E. coli BL21(DE3) codon-plus; about 47 kDa
T1 sequence (S8F479 487-830): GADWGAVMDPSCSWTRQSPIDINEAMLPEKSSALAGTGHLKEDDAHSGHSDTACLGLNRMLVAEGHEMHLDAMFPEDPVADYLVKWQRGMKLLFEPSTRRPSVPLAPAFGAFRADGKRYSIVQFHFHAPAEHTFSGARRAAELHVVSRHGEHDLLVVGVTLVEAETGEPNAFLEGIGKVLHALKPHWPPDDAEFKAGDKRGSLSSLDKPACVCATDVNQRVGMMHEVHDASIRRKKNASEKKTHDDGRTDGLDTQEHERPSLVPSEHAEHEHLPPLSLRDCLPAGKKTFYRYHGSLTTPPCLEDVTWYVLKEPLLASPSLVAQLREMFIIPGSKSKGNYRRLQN
Assay type: biochemical
For `CCN[C@H]1CN(CCCOC)S(=O)(=O)c2sc(S(N)(=O)=O)cc21` [BRZ, Brinzolamide], the Ki was 77.8 nM. Work on `NS(=O)(=O)c1nnc(NS(=O)(=O)c2ccccc2)s1` [BZA, Benzolamide] yielded a Ki of 62.1 nM. For `Cc1ccc(-c2cc(C(F)(F)F)nn2-c2ccc(S(N)(=O)=O)cc2)cc1` [CLX, Celecoxib], the Ki was 508 nM. Molecule `NS(=O)(=O)c1cc(Cl)c(Cl)c(S(N)(=O)=O)c1` [DCP, Dichlorphenamide] has a Ki of 77.5 nM. `NS(=O)(=O)c1cc2c(cc1Cl)NCNS2(=O)=O` [HCT, Hydrochlorothiazide] gave a Ki of 839 nM. Work on `NS(=O)(=O)c1ccc(S(=O)(=O)Nc2cccc3c(Cl)c[nH]c23)cc1` [IND, Indisulam] yielded a Ki of 84 nM. Work on `CC(=O)N=c1sc(S(N)(=O)=O)nn1C` [MZA, Methazolamide] yielded a Ki of 24.7 nM. In the case of `O=C1NS(=O)(=O)c2ccccc21` [SAC, Saccharin], the Ki is reported as 8450 nM. Work on `CC1(C)O[C@@H]2[C@@H](CO[C@@]3(COS(N)(=O)=O)OC(C)(C)O[C@@H]23)O1` [TPM, Topiramate] yielded a Ki of 720 nM. With `Cc1onc(-c2ccccc2)c1-c1ccc(S(N)(=O)=O)cc1` [VLX, Valdecoxib] the Ki was 426 nM. Work on `NS(=O)(=O)Cc1noc2ccccc12` [ZNS, Zonisamide] yielded a Ki of 912 nM. Work on `Cc1ccc(S(N)(=O)=O)cc1` [compound 4] yielded a Ki of 586 nM. Molecule `NCc1ccc(S(N)(=O)=O)cc1` [compound 5] has a Ki of 739 nM. `NS(=O)(=O)c1cc(Cl)cc(Cl)c1O` [compound 10] showed a Ki of 578 nM. Work on `Nc1cc(C(F)(F)F)c(S(N)(=O)=O)cc1S(N)(=O)=O` [compound 11] yielded a Ki of 65.1 nM. Work on `Nc1cc(Cl)c(S(N)(=O)=O)cc1S(N)(=O)=O` [compound 12] yielded a Ki of 73.8 nM. Work on `Nc1nnc(S(N)(=O)=O)s1` [compound 13] yielded a Ki of 57.5 nM. `Cn1nc(S(N)(=O)=O)sc1=N` [compound 14] was tested, and the Ki was 61 nM. `NS(=O)(=O)c1ccc(O)cc1` [compound 15] was tested, and the Ki was 76.4 nM. With `NS(=O)(=O)c1ccc(CO)cc1` [compound 16] the Ki was 91.6 nM. `NS(=O)(=O)c1ccc(CCO)cc1` [compound 17] was tested, and the Ki was 263 nM. `NS(=O)(=O)c1ccc(C(=O)O)cc1` [compound 18] gave a Ki of 85.3 nM. Work on `Nc1nccc(Nc2ccc(S(N)(=O)=O)cc2)n1` [compound 19] yielded a Ki of 72.5 nM. `Nc1ccc(S(=O)(=O)Nc2nnc(S(N)(=O)=O)s2)cc1` [compound 20] was tested, and the Ki was 17.8 nM. In the case of `NS(=O)(=O)c1ccc(CCNS(=O)(=O)c2ccc([N+](=O)[O-])cc2CO)cc1` [compound 21], the Ki is reported as 94.7 nM. `Nc1ccc(S(=O)(=O)Nc2ccc(S(N)(=O)=O)cc2)cc1` [compound 22] gave a Ki of 91.2 nM. For `Nc1ccc(S(=O)(=O)NCc2ccc(S(N)(=O)=O)cc2)cc1` [compound 23], the Ki was 93.4 nM. `Nc1ccc(S(=O)(=O)NCCc2ccc(S(N)(=O)=O)cc2)cc1` [compound 24] was tested, and the Ki was 204 nM.
